From patent US12357615B2, “Compositions for the treatment of brain tumors” (Kembi Therapeutics Pty Ltd, priority 2018, dated 2025)

Tests used:
T98G xenograft [1] = conditions: implanted DHT pellets versus no DHT, female C.B-17 SCID mice
Method: T98G cancer cells were implanted into the flanks female C.B-17 SCID mice with or without implanted DHT pellets. Tumor size was measured over time. The results were plotted using Graphpad Prism.

[2] = tested on: T98G AR positive glioblastoma multiforme cell line; experiment: GBM tumor cell line inhibition assay (colony formation), T98G; assay type: cell-based; conditions: Homo sapiens; T98 (T98G), AR positive GBM cells, 10-12 days; read-out: GI50 (growth inhibition, colony formation)
Method: (§1) The term “percent colony formation” as used herein is the number of colonies after treatment with seviteronel and normalized to the number of colonies formed in the absence of seviteronel.
(§2) AR positive and AR negative GBM cells were plated at clonal density and 1-2 days later were treated with the test compounds at the indicated concentrations. After 10-12 days, the plates were stained with crystal violet. The number of colonies were then counted and normalized to the number of colonies formed in the absence of the test compounds. The results were plotted using Graphpad Prism.

[3] = tested on: 8MGBA AR negative glioblastoma multiforme cell line; experiment: GBM tumor cell line inhibition assay (colony formation), 8MGBA; assay type: cell-based; conditions: AR negative GBM cells
Method: as §1, §2

[4] = tested on: AM38 AR negative glioblastoma multiforme cell line; experiment: GBM tumor cell line inhibition assay (colony formation), AM38; assay type: cell-based; conditions: AM38, AR negative GBM cells
Method: as §1, §2

[5] = tested on: LN18 AR positive cell line; experiment: Clonogenic survival after radiation with seviteronel, LN18; assay type: cell-based; conditions: 2.5 μM seviteronel 24 hours before radiation 0-8 Gy
Text: (§3) The term “surviving fraction” as used herein is the fraction of cells that retain their reproductive integrity after radiation normalized to the fraction of cells seeded and the colonies formed in the absence of irradiation
(§4) The term “enhancement ratio” as used herein is the ratio of the Dmid (the area under the radiation survival curve, which reflects the effectiveness of radiation) in the absence of seviteronel divided by the Dmid in the presence of seviteronel.
(§5) AR positive or negative GBM cell lines were treated with seviteronel (2.5-5 uM) for 24 hours prior to treatment with a single fraction of ionizing radiation (0-8 Gy) and then replated at clonal density. After 10-14 days, cells were stained with crystal violet and colonies were counted and normalized to conditions without radiation. Enhancement ratios were calculated by dividing the Dmid (the area under the clonogenic-survival curve) of control conditions by the Dmid of the seviteronel-treated cells.

[6] = tested on: T98G AR positive cell line; experiment: Clonogenic survival after radiation with seviteronel, T98G; assay type: cell-based; conditions: 5 μM seviteronel 24 hours before radiation 0-8 Gy
Text: as §3, §4, §5

[7] = tested on: 8MGBA AR negative cell line; experiment: Clonogenic survival after radiation with seviteronel, 8MGBA; assay type: cell-based; conditions: seviteronel 2.5-5 uM 24 hours before radiation 0-8 Gy
Text: as §3, §4, §5

[8] = tested on: AM38 AR negative cell line; experiment: Clonogenic survival after radiation with seviteronel, AM38; assay type: cell-based; conditions: seviteronel 2.5-5 uM 24 hours before radiation 0-8 Gy
Text: as §3, §4, §5

T98G xenograft [9] = experiment: Mouse T98G xenograft model, seviteronel and radiation therapy; assay type: in vivo
Method: T98G cancer cells were implanted into the flanks of DHT-bearing female C.B-17 SCID mice. After tumors reached approximately 100 mm3 in size, tumors were randomized into control, seviteronel alone (75 mg/kg for 30 days), radiation alone (2 Gy×6 fractions), or combined radiation and seviteronel treatment groups. Tumor size was measured over time and time to tumor doubling was estimated using the Kaplan-Meyer method. The results were plotted using Graphpad Prism.

Structure (SMILES): C[C@]12CCC(=O)C[C@@H]1CC[C@@H]1[C@@H]2CC[C@]2(C)[C@@H](O)CC[C@@H]12 [DHT, Dihydrotestosterone]
- tumor volume over time (T98G xenograft [1]): increased more rapidly

Structure (SMILES): CC(C)[C@](O)(c1ccc2cc(OC(F)F)c(OC(F)F)cc2c1)c1c[nH]nn1 [seviteronel]
- GI50 [2]: 4 µM
- effect on growth [3]: little to no effect
- effect on growth [4]: little to no effect
- enhancement ratio (Dmid without / with seviteronel) [5]: 1.5
- enhancement ratio (Dmid without / with seviteronel) [6]: 1.32
- enhancement ratio (Dmid without / with seviteronel) [7]: 1.0
- enhancement ratio (Dmid without / with seviteronel) [8]: 1.03
- tumor volume increase over 35 days (T98G xenograft [9]; seviteronel 75 mg/kg days 1-30 plus radiation therapy 2 Gy x 6 fractions days 2-7): approximately 50%
- mice with doubling in tumor volume after 30 days (T98G xenograft [9]; seviteronel 75 mg/kg plus radiation therapy 2 Gy x 6 fractions): none
- tumor volume increase over 35 days (T98G xenograft [9]; seviteronel alone, 75 mg/kg for 30 days, untreated approximately 5 fold): 2-3 fold
- time to tumor doubling (T98G xenograft [9]; seviteronel alone, 75 mg/kg for 30 days, untreated within 15 days): ≤ 30 days
